Consider two compounds from the NIST ThermoML archive (doi:10.1016/j.fluid.2008.02.007).

The conditions of the series: Crystal; visual observation.

Each structure is given as a SMILES string. Numbers after ± are expanded uncertainties.

Take `O=C(O)c1ccccc1[N+](=O)[O-]` [2-nitrobenzoic acid]: the Normal melting temperature came to 147.7 ± 0.5 °C. The figure for `O=C(O)c1ccc([N+](=O)[O-])cc1` [4-nitrobenzoic acid] is 240 ± 0.5 °C.
